The source of these data is patent publication US6949648B2, “Condensed pyrazole derivatives, process for producing the same and use thereof” (Takeda Pharmaceutical Company Limited, priority 2000, dated 2005).

The test system of one data set is IL-4. Nature of the data set: Effect on cytokine production of mice sensitized by controlled-release ovalbumin: IL-4. Type of data set: in vivo, BALB/c mouse. As to conditions: 30 mg/kg b.w. orally, 5 days a week during 9-day period, splenic cells incubated with OVA 3 days, ELISA; for inhibition in vivo at 30 mg/kg: Mus musculus, po, read-out: Suppression Rate (%) IL-4. How it is done: (§1) Effect on Cytokine Production of Mice Sensitized by Controlled-Release Ovalbumin
(§2) An osmotic pump (Alza Co., USA) containing a solution (100 μL) containing 1.0 mg of ovalbumin (OVA; albumin chicken egg grade III, Sigma Chemical) was implanted in the back of a male BALB/c mouse (Charles River) of 8 weeks old under ether anesthesia, and the mouse is sensitized by the controlled-release ovalbumin. After 11 days from implantation of the pump, a sample of spleen was removed, and a splenic cell suspension was prepared by the use of the RPMI-1640 medium (Bio Whittaker Inc., USA) containing inactivated fetal bovine serum (10% V/V; Bio Whittaker Inc., USA), 2-mercaptoethanol (50 μM), and gentamicin (20 μg/ml). A sample compound (30 mg/kg b.w.) was suspended in 0.4 ml of methylcellulose (MC), and the suspension was orally administered, 5 days a week during the 9-day period from the initiation day of sensitization to the day before the day of blood sample collection (1 Group, n=10). The splenic cell suspension was adjusted to a concentration of 5.0×10^6 cells/ml, and the resulting suspension (100 μl) was pipetted onto a 96 well U-bottomed plate, each of the wells containing a solution (100 μl/well) of 400 μg/ml OVA, and the plate was incubated at 37° C. in a 5% carbon dioxide gas incubator for 3 days. The cultured media were centrifuged at 200×g for 5 minutes, and the supernatants were collected and the production of IL-4, IL-5 and IFN-γ in each of the supernatants was determined by the ELISA method [Mouse IL-4 Bulk Kit (PerSeptive Biosystems), Mouse IL-5 Bulk Kit (PerSeptive Biosystems), and Mouse IFN-γ Bulk Kit (PerSeptive Biosystems)].
For orientation: ELISA stands for enzyme-linked immunosorbent assay.

The subject of a further data set is IFN-γ. In words: Effect on cytokine production of mice sensitized by controlled-release ovalbumin: IFN-γ. It counts as in vivo, BALB/c mouse. The following applies: 30 mg/kg b.w. orally, 5 days a week during 9-day period, splenic cells incubated with OVA 3 days, ELISA; for inhibition in vivo at 30 mg/kg: Mus musculus, po, read-out: Suppression Rate (%) IFN-γ. How it is done:
as §1, §2

Another data set concerns IL-5. In words: Effect on cytokine production of mice sensitized by controlled-release ovalbumin: IL-5. It counts as in vivo, BALB/c mouse. As to conditions: 30 mg/kg b.w. orally, 5 days a week during 9-day period, splenic cells incubated with OVA 3 days, ELISA; for inhibition in vivo at 30 mg/kg: Mus musculus, po, read-out: Suppression Rate (%) IL-5. How it is done:
as §1, §2

The subject of data set [1] is acetic acid induced rising and stretching. In words: Analgesic activity, acetic acid rising method. Type of data set: in vivo, ICR-mice. As to conditions: po, 20 min; 10 mg/kg orally, 30 minutes before 0.6% acetic acid i.p.; number of rising and stretching in 20 minutes; read-out: Repression rate (%) Dosage 10 mg/kg. How it is done:
Analgesic Activity Acetic Acid Rising Method Male ICR-mice (5 weeks old, CLEA Japan) were used (1 group, n=10), and a sample was orally administered (0.2 mL/10 g, b.w.). After 30 minutes, 0.6% acetic acid solution was injected to mice intraperitoneally (0.1 mL/10 g, b.w.), and the mice were immediately transferred into an observation cage made of a transparent acrylic resin. The number of rising and stretching during the following period of 20 minutes was counted. The repression rate (%) was calculated by comparing the average numbers between the sample groups and the control groups.

Data set [2] relates to carrageenin edema of right hind limb plantar. Nature of the data set: Anti-inflammatory activity, carrageenin edema method. Type of data set: in vivo, SD-rats. The following applies: po, 10 mg/kg orally. How it is done: Anti-Inflammatory Activity
Male SD-rats (6 weeks old, CLEA Japan) were used (1 group, n=6). The Carrageenin edema method was performed according to the method of Winter et. al., (Proc. Soc. Exp. Biol. Med., vol. 111, p. 544-547, 1962). After the volume of right hind limb plantar of the rat was determined, a sample was orally administered (1.0 mL, b.w.), and immediately water was orally administered in an amount of 5 mL/rat. Meanwhile, only the solvent of the sample was orally administered to rats in control. After 1 hour, a solution of 1% carrageenin in saline (0.05 mL) was injected into the right hind limb plantar subcutaneously to induce edema. After 2 and 3 hours later from the injection, volumes of the right hind limb plantar were determined. The repression rate (%) of the sample was calculated by comparing the difference of the volumes of the plantar before the carrageenin shot and 2 and 3 hours after the shot between the sample groups and the control groups.
(In general: Carrageenan injected into the paw causes an acute inflammation.)

In data set [3] the test system is OVA-specific IgG2a (Th1 type). Nature of the data set: Effect on antibody production of ovalbumin-sensitized mice: IgG2a. It counts as in vivo, BALB/c mouse. The following applies: 30 mg/kg b.w. orally, 5 days a week during 9-day period, serum 11 days after first sensitization, ELISA; for inhibition in vivo at 30 mg/kg: Mus musculus, po, 264 h, read-out: Suppression Rate (%) IgG2a. How it is done: (§3) Effect on Antibody Production of Mice Sensitized by Controlled-Release Ovalbumin
(§4) A male BALB/c mouse (Charles River) of 7 weeks old was sensitized by intraabdominal administration, twice at an interval of a week, of a mixture of 10 μg/mouse of ovalbumin (OVA; albumin chicken egg grade III; Sigma Chemical) and 1 mg of aluminum hydroxide hydrate gel suspension (Alum; LSL Co. LTD.). After 11 days from the first sensitization, blood was collected from beneath eye under ether anesthesia, and the amount of OVA-specific IgE, IgG1 (Th2 type) and IgG2a (Th1 type) antibodies in the serum were determined by the ELISA method. A sample compound (30 mg/kg b.w.) was suspended in 0.4 ml of methylcellulose (MC), and the suspension was orally administered, 5 days a week during the 9-day period from the initiation day of sensitization to the day before the day of blood sample collection (1 Group, n=8 to 10).

In another data set the test system is OVA-specific IgE. In words: Effect on antibody production of ovalbumin-sensitized mice: IgE. As to conditions: 30 mg/kg b.w. orally, 5 days a week during 9-day period, serum 11 days after first sensitization, ELISA; for inhibition in vivo at 30 mg/kg: Mus musculus, po, 264 h, read-out: Suppression Rate (%) IgE. It counts as in vivo, BALB/c mouse. How it is done: as §3, §4

The next data set relates to yeast-induced pyrexia. In words: Antipyretic activity in yeast-induced pyrexia. It counts as in vivo, SD rats. The following applies: 10 mg/kg orally; maximum difference in body temperature vs control over 6 hours. How it is done:
Antipyretic Activity in Yeast-Induced Pyrexia Antipyretic activity was determined using male SD origin male-rats (7 weeks old, CLEA Japan, 1 group: n=6), according to the method of winter et. al. (J. Pharmacol. Exp. Ther., vol. 138, p. 405, 1963). Before 16 hours from measurement of body temperature, a suspension of 15% yeast in saline was injected subcutaneously (10 mL/kg, b.w.) into the rats to induce fever, and simultaneously supply of food was terminated while water was made available all the time. Each of the rats was raised separately. After 16 hours from the yeast shot, a thermistor terminal was inserted at an about 4 cm depth into rectum every hour, and the body temperatures after 30 seconds were recorded. After 18 hours, rats developing fevers consistently were selected, and a sample was orally administered to the rats (5 mL/kg, b.w.), while to the control, only the solvent was administered. After the administration, body temperatures were measured every hour for a period of 6 hours, and the maximum difference in body temperature between the rats in the sample group and in the control group were determined as Δ (° C.).

Setting [4] is: 2 hr after carrageenin injection, read-out: Repression rate (%) Dosage 10 mg/kg 2 hr later.
[5] abbreviates: 3 hr after carrageenin injection, read-out: Repression rate (%) Dosage 10 mg/kg 3 hr later.

Where two headings read alike, the source gives them in different places. Marks after values point to notes of the source that are not given here.

The term melting point denotes the temperature, or range, at which the solid turns liquid. In the case of `Cc1cccc2nc3c(c(C)nn3-c3ccccn3)c(N)c12` [Example 1-44, 3,5-Dimethyl-1-(2-pyridinyl)-1H-pyrazolo[3,4-b]quinolin-4-ylamine], the melting point fell in the range of 252 to 255 °C. Moreover, the inhibition in vivo at 30 mg/kg with IL-4 turned out to be 68.2%. Besides, the inhibition in vivo at 30 mg/kg in the data set on IFN-γ came out at 36.3%. For the same molecule, the inhibition in vivo at 30 mg/kg with IL-5 is 3.1%.

As to `Cc1nn(-c2ccccn2)c2[nH]c3cc(F)c(Cl)cc3c(=O)c12` [Example 2-99, 6-Chloro-7-fluoro-3-methyl-1-(2-pyridinyl)-1,9-dihydro-4H-pyrazolo[3,4-b]quinolin-4-one], the melting point was 284 °C. For the same molecule, the inhibition in vivo at 10 mg/kg in data set [1] was 39%. In addition, the inhibition in vivo at 10 mg/kg in [2] (setting [4]) was found to be 46%. The inhibition in vivo at 10 mg/kg in [2] (setting [5]) is 41%.

In the case of `Cc1nn(-c2ccccn2)c2nc3ccccc3c(N)c12.Cl` [Example 1-36, 3-Methyl-1-(2-pyridinyl)-1H-pyrazolo[3,4-b]quinolin-4-ylamine hydrochloride], the melting point fell in the range of 268 to 271 °C. Also, the inhibition in vivo at 30 mg/kg with IL-4 turned out to be 99.8%. In the data set on IFN-γ, the inhibition in vivo at 30 mg/kg was -131%. The inhibition in vivo at 30 mg/kg with IL-5 came to 61.5%. Further, the inhibition in vivo at 30 mg/kg in data set [3] worked out at 23.4%. Further, the inhibition in vivo at 30 mg/kg with OVA-specific IgE was determined as 64.2%.

Take `O=c1c2cc(Cl)ccc2[nH]c2c1cnn2-c1ccccn1` [Example 2-161, 6-Chloro-1-(2-pyridinyl)-1,9-dihydro-4H-pyrazolo[3,4-b]quinolin-4-one]: the melting point fell in the range of 297 to 298 °C. Besides, the inhibition in vivo at 10 mg/kg in data set [1] was 74%. Moreover, in [2] (setting [4]), the inhibition in vivo at 10 mg/kg is 33%. In addition, the inhibition in vivo at 10 mg/kg in data set [2] (setting [5]) came to 33%. In addition, the “Δ (° C.) Dosage 10 mg/kg” value in the data set with yeast-induced pyrexia is given as 1.4** ° C.

Consider `Cc1cccc2c(=O)c3c(C)nn(-c4ccccn4)c3[nH]c12` [Example 1-47, 3,8-Dimethyl-1-(2-pyridinyl)-1,9-dihydro-4H-pyrazolo[3,4-b]quinolin-4-one], for which the inhibition in vivo at 30 mg/kg in the data set on IL-4 was 49.9%; with IFN-γ, 31.8%; in the data set with IL-5 it was 61.1%; in [3], -17.1%; in the data set on OVA-specific IgE, 4.9%.

Regarding `COc1cccc(-n2nc(C)c3c(N)c4cccc(C)c4nc32)n1` [Example 1-59, 3,8-Dimethyl-1-(6-methoxy-2-pyridinyl)-1H-pyrazolo[3,4-b]quinolin-4-ylamine], the inhibition in vivo at 30 mg/kg with IL-4 was 66.5%; in the data set on IFN-γ, -124%; with IL-5 it was 27.8%; in [3] it was 46.3%; in the data set with OVA-specific IgE, 60.7%.

In turn, `CSc1ccc2[nH]c3c(c(C)nn3-c3ccccn3)c(=O)c2c1` [Example 1-50, 3-Methyl-6-(methylsulfanyl)-1-(2-pyridinyl)-1,9-dihydro-4H-pyrazolo[3,4-b]quinolin-4-one] had a melting point of 182 to 185 °C. The inhibition in vivo at 30 mg/kg with IL-4 was 45.5%. In the data set on IFN-γ, the inhibition in vivo at 30 mg/kg was 11.1%. Besides, the inhibition in vivo at 30 mg/kg with IL-5 came to 60.2%. The inhibition in vivo at 30 mg/kg in [3] came out at 19.5%. Further, the inhibition in vivo at 30 mg/kg in the data set with OVA-specific IgE was 22%.

In the case of `CCOc1cccc(-n2nc(C)c3c(Cl)c4c(C)cccc4nc32)n1` [Example 1-57, 4-Chloro-3,5-dimethyl-1-(6-ethoxy-2-pyridinyl)-1H-pyrazolo[3,4-b]quinoline], the inhibition in vivo at 30 mg/kg in the data set with IL-4 is 43.2%; in the data set with IFN-γ, 36.7%; in the data set with IL-5, 53.9%; in [3] it was -55.1%; in the data set on OVA-specific IgE it was 23.6%.

As for `CCOc1cccc(-n2nc(C)c3c(N)c4cccc(C)c4nc32)n1` [Example 1-60], the “Suppression Rate (%) IL-4” value in the data set on IL-4 was 56.7%. In addition, the “Suppression Rate (%) IFN-γ” value with IFN-γ was found to be 23.4%. Moreover, the “Suppression Rate (%) IL-5” value in the data set on IL-5 was determined as 59.3%. The “Suppression Rate (%) IgG2a” value in data set [3] was 47.8%. Further, in the data set with OVA-specific IgE, the “Suppression Rate (%) IgE” value is 54.9** %.
